In patent publication US8263401B2, “Adenylyl cyclase antibodies, compositions and uses thereof” (University of Medicine and Dentistry of New Jersey, priority 2005, dated 2012):

Experiments:
[1] = system: conscious AC5KO and WT mice; assay: HR and arterial pressure in conscious mice (ECG, micromanometer catheter); type: in vivo, mouse; conditions: for decrease in HR: Ach 0.01 μg/g i.v.; for increase in HR: atropine 1 μg/g i.v.
Description: In AC5KO and WT mice, four ECG wires (New England Electric Wire Corporation, Lisbon, N.H., USA) were placed subcutaneously, a silicone elastomer tubing (Cardiovascular Instrument Corp., Wakefield, Mass., USA) was inserted into the right external jugular vein and a 1.4 F micromanometer catheter (Millar Instruments, Inc., Houston, Tex., USA) was inserted into the lower abdominal aorta via the femoral artery as described previously with some modifications (Uechi, M., Asai, K., Osaka, M., Smith, A., Sato, N., Wagner, T. E., Ishikawa, Y., Hayakawa, H., Vatner, D. E., Shannon, R. P., et al. (1998), Circ. Res. 82:416-423). The ECG wires, the silicone elastomer tubing and the micromanometer catheter were tunneled subcutaneously to the back, externalized, and secured in a plastic cap. On the day of the study, each mouse was placed in the mouse holder, the jugular venous catheter was accessed and connected to a microliter syringe (Hamilton Co., Reno, Nev., USA), the 1.4 F micromanometer catheter was connected to a recorder (Dash 4u; Astro-Med, Inc., West Warwick, R.I., USA) and the ECG wires were connected to an ECG amplifier (Gould Inc., Cleveland, Ohio, USA). All experiments were recorded with animals in the conscious state. After at least 6 hours recovery from the implantation of the catheter, when a stable HR was achieved, the baseline ECG and arterial pressure (AP) were recorded for 5 min. Ach(0.05 μg/g) was then administered intravenously (i.v.), and the ECG and AP recording were repeated. A recovery period of 15 min was allowed for the HR and AP to return to baseline before administering the next drug. Baseline HR slowing was examined in response to phenylephrine (0.2 μg/g i.v.).

[2] = system: ISO-stimulated AC activity in heart membranes; assay: AC assay in heart membrane preparations; type: biochemical, mouse; conditions: carbachol 10 μM
Protocol: Hearts were dissected from the mice and membrane preparations were prepared as described previously (Ishikawa, Y., Sorota, S., Kiuchi, K., Shannon, R. P., Komamura, K., Katsushika, S., Vatner, D. E., Vatner, S. F., and Homcy, C. J. (1994), J. Clin. Invest. 93:2224-2229.). Protein concentration was measured by the method of Bradford using bovine serum albumin as a standard (Bradford, M. M. (1976). Anal. Biochem. 72:248-254.). AC activity was measured as described previously (Kawabe, J., Iwami, G., Ebina, T., Ohno, S., Katada, T., Ueda, Y., Homcy, C. J., and Ishikawa, Y. (1994), J. Biol. Chem. 269:16554-16558). AC activity was linear within the incubation time up to 30 min. In order to harvest hearts for tissue cAMP content measurements, mice were allowed to acclimate to the surroundings in the laboratory for an hour before sacrifice. Freshly isolated hearts were briefly immersed in liquid nitrogen. […] The concentration of cAMP was determined with an RIA kit (PerkinElmer Life Sciences, Boston, Mass., USA).
Inventors then examined cAMP production in membranes from the hearts of AC5KO and WT at 6 months of age (FIG. 5A). The steady state AC activity was determined as the maximal capacity of cAMP production in the presence of ISO (100 μM ISO+100 μM GTP), GTPγS (100 μM) or forskolin (100 μM). […]

[3] = system: AC5KO and WT mice; assay: Echocardiography in anesthetized mice during i.v. ISO infusion, with co-administered Ach; type: in vivo, mouse
Protocol: Adenylyl cyclase 5 knockout (AC5KO) mice (6.4±0.2 month old, n=6) and wild type (WT) mice (6.7±0.1 month old, n=6) of either sex from the same genetic background as the transgenic mice were used for the physiological studies. Measurements of LV ejection fraction (LVEF) were performed as described previously (Iwase, M., Uechi, M., Vatner, D. E., Asai, K., Shannon, R. P., Kudej, R. K., Wagner, T. E., Wight, D.C., Patrick, T. A., Ishikawa, Y., et al. (1997), Am. J. Physiol. 272:H585-589.). Briefly, after determination of body weight, mice were anesthetized with ketamine (0.065 mg/g), acepromazine (0.002 mg/g), and xylazine (0.013 mg/g) injected intraperitoneally and were allowed to breathe spontaneously. Echocardiography was performed using ultrasonography (Sequoia C256; Acuson Corporation, Mountain View, Calif., USA). A dynamically focused 15-MHz annular array transducer was applied from below, using a warmed saline bag as a standoff. M-mode echocardiographic measurements of the LV were performed at baseline and during intravenous infusion of ISO (0.005, 0.01, 0.02, and 0.04 μg/kg/min i.v. for 5 minutes each)(Abbott Laboratories Inc, North Chicago, Ill., USA) using an infusion pump (PHD 2000; Harvard Apparatus, Inc., Holliston, Mass., USA). The total amount of the infusion volume was <100 μL in each mouse. […]

[4] = system: WT, heterozygous and AC5KO mice; assay: Rotor rod test before and after db-cAMP injection; type: in vivo, mouse; conditions: for increase in time spent on the rod without falling: 30 minutes after db-cAMP injection; for rotor rod performance: 48 hours after injection
Protocol: The animals were tested for motor function 30 minutes after i. p. administration of 10 mg/kg of db-cAMP. The test was repeated after 48 hours of drug administration when the drug effect was completely eliminated. Similarly, intracranial injection of db-cAMP was conducted. Before drug injection, the mice were anesthetized with ketamine. Injections of db-cAMP into the mouse brain were performed at the following coordinates: for injection into the striatum: 1.70 mm anterior to the bregma, 1.1 mm to the right of the midline, and 4.1 mm deep. Three micro-liters of drug solution was loaded into an internal cannula needle (C315×33) with cannula tubing connected to a Hamilton syringe mounted onto a microinjection pump (Harvard Apparatus, Dover, Mass.). The drug solutions were delivered at a rate of 0.5 μl/min. Normal saline was injected in a sham control.
The rotor rod test is the most commonly used method to evaluate the motor function in rodents^106 but other methods are also available^107 to reinforce the findings of the rotor rod test. Such tests include rearing test, spontaneous movement study and pole test. The first test examines the frequency of vertical movements of mice and the second examines that of horizontal movements. Thus, spontaneous activity was determined both horizontally (locomotion) and vertically (rearings). The last test, the pole test, examines the degree of bradykinesia. In this test, mice were placed head upward on the top of a rough-surfaced pole. The time until they turned downward (Tturn) and the time until they climbed down to the floor were measured (TLA). Mice were placed in a cage and their movements were videotaped for analysis. Thus, spontaneous movements as an index of motor function were evaluated. Most important, these tests were used to evaluate the recovery of motor function upon cAMP administration and/or adenovirus-mediated gene transfer of AC5 in additional studies. The preliminary data were obtained from littermates of AC5KO, and WT males.
The inventors examined whether the locomotor activity of the AC5KO mouse was impaired compared to a normal mouse. At a glance, the AC5KO mice appeared normal, i.e., they were not catatonic or rigid. […] Inventors analyzed them with a rotor rod test in which mice were put on a rotor rod as shown below. In this task, animals had to make continuous adjustment in balance and posture to remain upright on a rod. The time that mice spent on the accelerating rotor-rod without falling was measured. The rod increased from 3 rpm to 30 rpm during each 5-min trial. […] At the 5th trial, there was a small, but significant decrease in their performance in heterozygous mice.

[5] = system: primary cultured striatal neurons; assay: cAMP accumulation in primary cultured striatal neurons; type: cell-based, mouse; conditions: neuronal cells from WT mice; forskolin 50 micro M, dopamine 100 micro M (FIG. 9)
Protocol: Reaction with various agonists in the presence of a phosphodiesterase inhibitor proceed for 10 minutes and are stopped by the addition of ice-cold 2.5% perchloric acid, followed by sonication and centrifugation. Pellets are dissolved in 0.1 N NaOH for protein measurements and the supernatants are subject to cAMP assay by radioimmunoassay after neutralization. To examine whether AC5 plays a major role in regulating cAMP production, receptor-stimulated cAMP production and its effect in the striatum was measured. The rationale for this study is as follows. Changes in cAMP signal upon receptor stimulation can be easily determined by measuring AC activity in intact neuronal cells because the striatal membrane preparations present a few problems. Determination of basal, GTPγS— and forskolin-stimulated AC activity may be readily done while receptor-regulated AC activity, both stimulatory and inhibitory, is not easy in the striatum. This is, at least partially, due to less abundant receptor expression and the disruption of the receptor/G protein/AC coupling during the process of membrane homogenization of the striatum. Therefore, the effect of receptor stimulation and its sequential changes in AC activity and further downstream events including the process of phosphorylation/dephosphorylation may be best examined using cultured cells or even the whole body. […]

## CC(=O)OCC[N+](C)(C)C [Ach, acetylcholine]
[1]; conscious AC5KO
  decrease in HR: 7.5%
[1]; conscious WT
  decrease in HR: 22%

## C[N+](C)(C)CCOC(N)=O [Carbachol]
[2]; AC5KO heart membranes
  inhibition of ISO-stimulated AC activity: did not inhibit
[2]; WT heart membranes
  decrease of ISO-stimulated AC activity: 21±3.4%

## CC(C)NCC(O)c1ccc(O)c(O)c1 (stereo not shown) [ISO]
[3]
  cardiac responses on LVEF and fractional shortening (FS): attenuated

## CNC[C@H](O)c1cccc(O)c1 [Phenylephrine, phenylephrine]
[1]; AC5KO compared with WT, phenylephrine 0.2 μg/g i.v.
  baroreflex mediated slowing of HR: less
[1]; both WT and AC5KO, phenylephrine 0.2 μg/g i.v.
  systolic arterial pressure: increased systolic arterial pressure significantly

## CN1[C@@H]2CC[C@H]1C[C@@H](OC(=O)C(CO)c1ccccc1)C2 (stereo partly shown) [atropine]
[1]; AC5KO
  increase in HR: 19±7.5 beats/min
[1]; WT
  increase in HR: 102±22.2 beats/min

## CCCC(=O)Nc1ncnc2c1ncn2[C@@H]1O[C@@H]2COP(=O)(O)O[C@H]2[C@H]1OC(=O)CCC [db-cAMP]
[4]; AC5KO
  increase in time spent on the rod without falling: approximately two-fold
  rotor rod performance: dropped to the basal level
[4]; WT
  increase in time spent on the rod without falling: 30%
  rotor rod performance: remained similar
[4]; heterozygous
  increase in time spent on the rod without falling: 25%
  rotor rod performance: remained similar

## NCCc1ccc(O)c(O)c1 [dopamine]
[5]
  levels of cAMP compared to untreated cells: effective at increasing the levels of cAMP significantly
